# Tested on: hemoglobin-haptoglobin complex
# Assay: Stability of hemoglobin (as hemoglobin-haptoglobin complex) in samples preserved at 37° C. in preservation solution containing 1 unit/L haptoglobin, Hb measured by latex agglutination method (Examples 1 to 7)
# Parameters: species or system human
# Conditions: for Hb concentration / Recovery ratio with respect to Hb concentration after 0 days / Recovery ratio with respect to Hb after 0 days: 37° C.
# Outline: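 Latex agglutination (anti-human hemoglobin rabbit polyclonal latex) measured Hb in samples stored at 37 °C up to 21 days; values expressed as % recovery versus day 0. Preservation solution: HEPES 40 mmol/L pH 6.8, BSA 0.1%, NaN3 0.1%, haptoglobin 1 unit/L, phenylboronic acid 0–100 mmol/L, optional sugars; ~300 µg/L Hb, 0.5% feces or none.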
# [1] = Feces 3, sugar 50 mmol/L + phenylboronic acid 15 mmol/L, 7 days
# [2] = Feces 3, sugar 50 mmol/L + phenylboronic acid 15 mmol/L, 14 days
# [3] = Feces 3, sugar 50 mmol/L + phenylboronic acid 15 mmol/L, 21 days
# [4] = Feces 3, sugar 100 mmol/L + phenylboronic acid 0.5 mmol/L, 0 days
# [5] = Feces 3, sugar 100 mmol/L + phenylboronic acid 0.5 mmol/L, 7 days
# [6] = Feces 3, sugar 100 mmol/L + phenylboronic acid 0.5 mmol/L, 14 days
# [7] = Feces 3, sugar 100 mmol/L + phenylboronic acid 15 mmol/L, 0 days
# [8] = Feces 3, sugar 100 mmol/L + phenylboronic acid 15 mmol/L, 0 days (Table 7)
# [9] = Feces 3, sugar 100 mmol/L + phenylboronic acid 15 mmol/L, 7 days
# [10] = Feces 3, sugar 100 mmol/L + phenylboronic acid 15 mmol/L, 7 days (Table 7)
# [11] = Feces 3, sugar 100 mmol/L + phenylboronic acid 15 mmol/L, 14 days
# [12] = Feces 3, sugar 100 mmol/L + phenylboronic acid 15 mmol/L, 14 days (Table 7)
# [13] = Feces 3, sugar 100 mmol/L + phenylboronic acid 15 mmol/L, 21 days
# [14] = Feces 3, sugar 100 mmol/L + phenylboronic acid 50 mmol/L, 0 days
# [15] = Feces 3, sugar 100 mmol/L + phenylboronic acid 50 mmol/L, 7 days
# [16] = Feces 3, sugar 100 mmol/L + phenylboronic acid 50 mmol/L, 14 days
# [17] = Feces 3, sugar 100 mmol/L, no phenylboronic acid, 0 days
# [18] = Feces 3, sugar 100 mmol/L, no phenylboronic acid, 7 days
# [19] = Feces 3, sugar 100 mmol/L, no phenylboronic acid, 14 days
# [20] = Feces 3, sugar 100 mmol/L, no phenylboronic acid, 21 days
# [21] = No feces, sugar 50 mmol/L + phenylboronic acid 15 mmol/L, 0 days
# [22] = No feces, sugar 50 mmol/L + phenylboronic acid 15 mmol/L, 7 days
# [23] = No feces, sugar 50 mmol/L + phenylboronic acid 15 mmol/L, 14 days
# [24] = No feces, sugar 50 mmol/L + phenylboronic acid 15 mmol/L, 21 days
# [25] = No feces, sugar 100 mmol/L + phenylboronic acid 0.5 mmol/L, 0 days
# [26] = No feces, sugar 100 mmol/L + phenylboronic acid 0.5 mmol/L, 7 days
# [27] = No feces, sugar 100 mmol/L + phenylboronic acid 0.5 mmol/L, 14 days
# [28] = No feces, sugar 100 mmol/L + phenylboronic acid 15 mmol/L, 0 days
# [29] = No feces, sugar 100 mmol/L + phenylboronic acid 15 mmol/L, 0 days (Table 7)
# [30] = No feces, sugar 100 mmol/L + phenylboronic acid 15 mmol/L, 7 days
# [31] = No feces, sugar 100 mmol/L + phenylboronic acid 15 mmol/L, 7 days (Table 7)
# [32] = No feces, sugar 100 mmol/L + phenylboronic acid 15 mmol/L, 14 days
# [33] = No feces, sugar 100 mmol/L + phenylboronic acid 15 mmol/L, 14 days (Table 7)
# [34] = No feces, sugar 100 mmol/L + phenylboronic acid 15 mmol/L, 21 days
# [35] = No feces, sugar 100 mmol/L + phenylboronic acid 50 mmol/L, 0 days
# [36] = No feces, sugar 100 mmol/L + phenylboronic acid 50 mmol/L, 7 days
# [37] = No feces, sugar 100 mmol/L + phenylboronic acid 50 mmol/L, 14 days
# [38] = No feces, sugar 100 mmol/L, no phenylboronic acid, 0 days
# [39] = No feces, sugar 100 mmol/L, no phenylboronic acid, 7 days
# [40] = No feces, sugar 100 mmol/L, no phenylboronic acid, 14 days
# [41] = No feces, sugar 100 mmol/L, no phenylboronic acid, 21 days
smiles,measurement,setting,value
"OC[C@@H](O)[C@@H](O)[C@H](O)[C@@H](O)CO [Sorbitol, sorbitol]",Hb concentration,[1],250 µg/L
same,Recovery ratio with respect to Hb concentration after 0 days,[1],88%
same,Hb concentration,[2],235 µg/L
same,Recovery ratio with respect to Hb concentration after 0 days,[2],83%
same,Hb concentration,[3],223 µg/L
same,Recovery ratio with respect to Hb concentration after 0 days,[3],79%
same,Hb concentration,[4],294 µg/L
same,Recovery ratio with respect to Hb after 0 days,[4],100%
same,Hb concentration,[5],163 µg/L
same,Recovery ratio with respect to Hb after 0 days,[5],55%
same,Hb concentration,[6],145 µg/L
same,Recovery ratio with respect to Hb after 0 days,[6],49%
same,Hb concentration,[7],278 µg/L
same,Recovery ratio with respect to Hb concentration after 0 days,[7],100%
same,Hb concentration,[8],292 µg/L
same,Recovery ratio with respect to Hb after 0 days,[8],100%
same,Hb concentration,[9],244 µg/L
same,Recovery ratio with respect to Hb concentration after 0 days,[9],88%
same,Hb concentration,[10],246 µg/L
same,Recovery ratio with respect to Hb after 0 days,[10],84%
same,Hb concentration,[11],226 µg/L
same,Recovery ratio with respect to Hb concentration after 0 days,[11],81%
same,Hb concentration,[12],233 µg/L
same,Recovery ratio with respect to Hb after 0 days,[12],80%
same,Hb concentration,[13],219 µg/L
same,Recovery ratio with respect to Hb concentration after 0 days,[13],79%
same,Hb concentration,[14],273 µg/L
same,Recovery ratio with respect to Hb after 0 days,[14],100%
same,Hb concentration,[15],247 µg/L
same,Recovery ratio with respect to Hb after 0 days,[15],90%
same,Hb concentration,[16],230 µg/L
same,Recovery ratio with respect to Hb after 0 days,[16],84%
same,Hb concentration,[17],278 µg/L
same,Recovery ratio with respect to Hb concentration after 0 days,[17],100%
same,Hb concentration,[18],98 µg/L
same,Recovery ratio with respect to Hb concentration after 0 days,[18],35%
same,Hb concentration,[19],62 µg/L
same,Recovery ratio with respect to Hb concentration after 0 days,[19],22%
same,Hb concentration,[20],56 µg/L
same,Recovery ratio with respect to Hb concentration after 0 days,[20],20%
same,Hb concentration,[21],281 µg/L
same,Recovery ratio with respect to Hb concentration after 0 days,[21],100%
same,Hb concentration,[22],261 µg/L
same,Recovery ratio with respect to Hb concentration after 0 days,[22],93%
same,Hb concentration,[23],251 µg/L
same,Recovery ratio with respect to Hb concentration after 0 days,[23],89%
same,Hb concentration,[24],265 µg/L
same,Recovery ratio with respect to Hb concentration after 0 days,[24],94%
same,Hb concentration,[25],291 µg/L
same,Recovery ratio with respect to Hb after 0 days,[25],100%
same,Hb concentration,[26],277 µg/L
same,Recovery ratio with respect to Hb after 0 days,[26],95%
same,Hb concentration,[27],273 µg/L
same,Recovery ratio with respect to Hb after 0 days,[27],94%
same,Hb concentration,[28],276 µg/L
same,Recovery ratio with respect to Hb concentration after 0 days,[28],100%
same,Hb concentration,[29],288 µg/L
same,Recovery ratio with respect to Hb after 0 days,[29],100%
same,Hb concentration,[30],252 µg/L
same,Recovery ratio with respect to Hb concentration after 0 days,[30],91%
same,Hb concentration,[31],274 µg/L
same,Recovery ratio with respect to Hb after 0 days,[31],95%
same,Hb concentration,[32],244 µg/L
same,Recovery ratio with respect to Hb concentration after 0 days,[32],88%
same,Hb concentration,[33],268 µg/L
same,Recovery ratio with respect to Hb after 0 days,[33],93%
same,Hb concentration,[34],255 µg/L
same,Recovery ratio with respect to Hb concentration after 0 days,[34],92%
same,Hb concentration,[35],290 µg/L
same,Recovery ratio with respect to Hb after 0 days,[35],100%
same,Hb concentration,[36],295 µg/L
same,Recovery ratio with respect to Hb after 0 days,[36],102%
same,Hb concentration,[37],293 µg/L
same,Recovery ratio with respect to Hb after 0 days,[37],101%
same,Hb concentration,[38],255 µg/L
same,Recovery ratio with respect to Hb concentration after 0 days,[38],100%
same,Hb concentration,[39],239 µg/L
same,Recovery ratio with respect to Hb concentration after 0 days,[39],94%
same,Hb concentration,[40],235 µg/L
same,Recovery ratio with respect to Hb concentration after 0 days,[40],92%
same,Hb concentration,[41],236 µg/L
same,Recovery ratio with respect to Hb concentration after 0 days,[41],93%
same,recovery ratio of hemoglobin in the sample,"sugar 100 mmol/L further added to other arylboronic acids (3-CPBA, 3-HPBA, 3-APBA) 15 mmol/L, Feces 1, Feces 2, Feces 3",further improved
same,recovery ratio of hemoglobin in the samples containing fecal specimens,"sugar 100 mmol/L, preservation solutions containing no phenylboronic acid",does not improve
same,recovery ratio of hemoglobin in the sample,"sugar 50 or 100 mmol/L further added to phenylboronic acid 15 mmol/L, Feces 1, Feces 2, Feces 3",remarkably improved
same,recovery ratio of hemoglobin in the samples containing feces,"sugar added to phenylboronic acid 15 mmol/L, Feces 1, Feces 2, Feces 3",improved depending on the added concentration
